Measured values published in US20050256103A1, “Indole derivative having piperidine ring” (Eisai Co., Ltd., priority 2004, published 2005).

Legend:
[1] = tested on: Sprague-Dawley male rats; assay: Effect of controlling memory disorder induced by 8-OH-DPAT in rats (8-arm radial maze); format: in vivo, rat; settings: 0.3 mg/kg, s.c., 20 min before 8-OH-DPAT 0.5 mg/kg s.c.; Mean ± S.E., N 8
Description: (1) A Sprague-Dawley male rats (130-200 g) were bred in an individual cage and used in the present test. For appetite stimulation, the body weight of the rats was reduced to approximately 80% of the original weight by fasting. […] As a maze test, an elevated 8-arm radial maze (central platform diagonal length: 34 cm, arm length: 60 cm; arm width: 12 cm) was used. In order to allow the rats to remember the positions of baits placed on the arms, the rats were left on the platform of the maze in which baits had been placed on the tips of the 4 predetermined arms. Thereafter, the rats were left on the maze for a certain period of time or until it ate all the baits. This training was carried out 1 to 3 times a day. The rats that had sufficiently learned were subjected to the following experiment. A solvent or test substance was subcutaneously administered to the rats. Twenty minutes later, 0.5 mg/kg 8-OH-DPAT was subcutaneously administered thereto. Further, 20 minutes later, the same maze test as that in the training was carried out. A reference memory error was defined as an action to enter arms on which no baits had been placed, and a working memory error was defined as an action to enter again arms on which baits had previously been placed. Thus, the actions of the rat were recorded. In addition, the time required for the rat to take all the four baits was also recorded. […] (Reference:Yoshihiro Hiraga, “Effects of scopolamine upon delayed radial-arm maze performance in rats” Folia pharmacol. Japon. 97, 351-359 (1991)) The results are shown in Table 4.

[2] = molecular target: T1, serotonin 1A receptor (Mus musculus, UniProt Q64264); assay: Antagonistic effect on serotonin 1A receptor agonist (8-OH-DPAT)-induced hypothermia in mouse; format: in vivo; settings: CD-1 (ICR) male mice; inhibition of hypothermia by 8-OH-DPAT 0.5 mg/kg sc; test substance 15 minutes before agonist
T1 construct: into the rectum of CD-1 (ICR) male mice (25-45 g); from tissue; host or cells: living CD-1 (ICR) male mice (in vivo)
T1 sequence (Q64264 1-421): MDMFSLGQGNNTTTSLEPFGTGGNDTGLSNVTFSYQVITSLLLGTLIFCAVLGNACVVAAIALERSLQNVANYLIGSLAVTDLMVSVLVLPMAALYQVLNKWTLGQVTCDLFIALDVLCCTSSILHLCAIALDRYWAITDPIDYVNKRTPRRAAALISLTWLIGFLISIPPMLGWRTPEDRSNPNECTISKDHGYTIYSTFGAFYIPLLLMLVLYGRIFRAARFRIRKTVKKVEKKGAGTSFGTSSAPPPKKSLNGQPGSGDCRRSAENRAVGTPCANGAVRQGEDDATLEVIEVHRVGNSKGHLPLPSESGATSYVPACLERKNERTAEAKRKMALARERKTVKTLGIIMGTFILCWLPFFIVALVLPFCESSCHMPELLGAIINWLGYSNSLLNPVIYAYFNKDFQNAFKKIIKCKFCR
Method in brief: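 CD-1 (ICR) male mice, 25-45 g; rectal temperature by thermistor probe at about 2 cm depth. Test substance given 15 min before s.c. 8-OH-DPAT […]; antagonism scored as inhibition of the induced hypothermia.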

ED50 [2]: 0.03 mg/kg, sc
Compound: CNC(=O)c1ccc2ccn(C3CCN(CCc4c(OC)ccc5c4OC(C)(C)CC5=O)CC3)c2c1 [Compound 20, 1-{1-[2-(7-methoxy-2,2-dimethyl-4-oxochroman-8-yl)ethyl]piperidin-4-yl}-N-methyl-1H-indole-6-carboxamide]
Elapsed time [1]: 52 ± 9.9 s
Number of reference memory errors [1]: 1.50 ± 0.57
Number of working memory errors [1]: 0.25 ± 0.16
